Experimental findings from article PMC11951083, “Highly Specific Miniaturized Fluorescent Monoacylglycerol Lipase Probes Enable Translational Research” (Journal of the American Chemical Society, 2025) are described below.

One test addresses T1, ZAP70 kinase (h) (Homo sapiens, UniProt P43403).
T1 sequence (P43403 1-619): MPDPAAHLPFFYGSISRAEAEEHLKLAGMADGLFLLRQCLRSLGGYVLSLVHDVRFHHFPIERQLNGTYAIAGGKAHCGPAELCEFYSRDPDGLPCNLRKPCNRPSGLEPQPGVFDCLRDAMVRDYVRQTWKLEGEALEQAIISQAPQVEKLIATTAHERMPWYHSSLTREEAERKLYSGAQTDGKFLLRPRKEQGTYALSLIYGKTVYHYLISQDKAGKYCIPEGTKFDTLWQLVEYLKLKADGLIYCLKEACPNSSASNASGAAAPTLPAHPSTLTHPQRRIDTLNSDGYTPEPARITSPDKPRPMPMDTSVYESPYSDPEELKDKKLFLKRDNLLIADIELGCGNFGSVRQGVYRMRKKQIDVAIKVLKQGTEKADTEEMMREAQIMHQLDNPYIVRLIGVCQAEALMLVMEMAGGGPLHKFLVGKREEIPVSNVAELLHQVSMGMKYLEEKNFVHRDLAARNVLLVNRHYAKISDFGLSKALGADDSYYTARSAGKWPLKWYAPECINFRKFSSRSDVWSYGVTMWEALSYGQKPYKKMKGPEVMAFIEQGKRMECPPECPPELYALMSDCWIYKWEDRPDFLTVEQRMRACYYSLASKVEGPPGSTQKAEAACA
Description: ZAP70 kinase (h). Particulars: read-out: Inhibition ZAP70 kinase (h).

A further test deals with 5-HT2A (h) (Homo sapiens, UniProt P28223). Put plainly: 5-HT2A (h) (agonist radioligand). Particulars: read-out: Inhibition 5-HT2A (h) (agonist radioligand).
Test [1] has as its target glycine (strychnine-insensitive) (Rattus norvegicus, UniProt P35439). Put plainly: glycine (strychnine-insensitive) (antagonist radioligand). Particulars: read-out: Inhibition glycine (strychnine-insensitive) (antagonist radioligand).
Another test has as its target T2, MAGL (Homo sapiens, UniProt Q99685).
T2 sequence (Q99685 1-303): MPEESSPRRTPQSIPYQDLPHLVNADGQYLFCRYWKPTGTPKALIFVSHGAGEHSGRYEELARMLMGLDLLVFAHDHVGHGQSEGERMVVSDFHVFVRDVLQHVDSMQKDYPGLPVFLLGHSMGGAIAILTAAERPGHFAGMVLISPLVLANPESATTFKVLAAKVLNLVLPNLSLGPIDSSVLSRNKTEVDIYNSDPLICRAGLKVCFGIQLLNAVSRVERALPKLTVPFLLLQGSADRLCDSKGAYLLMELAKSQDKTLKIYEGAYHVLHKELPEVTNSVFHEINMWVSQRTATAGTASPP
Put plainly: Surface plasmon resonance on human MAGL. In kind it is binding. Particulars: SPR. How it is done:
High throughput kinetic solubility measurement was performed as previously described in the […]
Surface plasmon resonance
EDC/NHS coupling with a final protein concentration of 0.06 mg/mL: 10 mM acetate pH 5.5 + 10µM RO7224999-000-001(reference binder). No quenching was applied after immobilization, but the surface was left with a running buffer for 1 h to hydrolyze and stabilize.
Running buffer: […], 150 mM NaCl, 0.05% P20, pH 7.4 + 50 µM EDTA, 1% DMSO Instrument:
Biacore T200 Sensorchip: CM5 Temperature: 18 °C concentration series: 5 concentration 3-fold dilution, top conc 0.5 µM, contact time 180s, dissociation time 300s before each compound a blank injection for double referencing was measured. Each compound was followed by 9 injections of Control, RO7283571 (60 s contact time, 200 s dissociation time, 10 µM) to validate surface activity and recovery to determine off rates.
Dissociation was trimmed for compounds showing faster kinetics to suppress the over-fitting of baseline drift. Data was fitted with 1:1 model with an added drift parameter to improve fit quality and to compensate from insufficient drift correction with the double referencing. Off rates (koff) were determined by recovery of reference binding. The signal was first blank subtracted, and the corrected chaser response was plotted versus time and fitted to an exponential decay model. […]

In another test the target is MMP-9 (h) (Homo sapiens, UniProt P14780). Put plainly: MMP-9 (h). Particulars: read-out: Inhibition MMP-9 (h).

Structures are written as SMILES.

5-HT2A (h), sequence (P28223 whole entry): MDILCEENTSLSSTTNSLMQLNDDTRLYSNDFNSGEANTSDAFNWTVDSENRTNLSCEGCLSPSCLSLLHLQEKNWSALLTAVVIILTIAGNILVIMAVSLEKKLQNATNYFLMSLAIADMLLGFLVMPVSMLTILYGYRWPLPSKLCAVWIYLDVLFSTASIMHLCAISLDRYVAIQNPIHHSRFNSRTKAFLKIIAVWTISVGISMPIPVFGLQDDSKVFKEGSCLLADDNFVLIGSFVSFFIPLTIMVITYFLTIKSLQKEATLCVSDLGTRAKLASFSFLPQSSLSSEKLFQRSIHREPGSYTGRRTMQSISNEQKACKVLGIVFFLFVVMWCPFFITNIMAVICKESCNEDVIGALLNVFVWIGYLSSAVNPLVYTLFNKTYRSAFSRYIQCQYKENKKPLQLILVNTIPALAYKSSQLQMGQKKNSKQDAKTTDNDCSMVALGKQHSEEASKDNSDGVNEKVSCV
glycine (strychnine-insensitive), sequence (P35439 394-800): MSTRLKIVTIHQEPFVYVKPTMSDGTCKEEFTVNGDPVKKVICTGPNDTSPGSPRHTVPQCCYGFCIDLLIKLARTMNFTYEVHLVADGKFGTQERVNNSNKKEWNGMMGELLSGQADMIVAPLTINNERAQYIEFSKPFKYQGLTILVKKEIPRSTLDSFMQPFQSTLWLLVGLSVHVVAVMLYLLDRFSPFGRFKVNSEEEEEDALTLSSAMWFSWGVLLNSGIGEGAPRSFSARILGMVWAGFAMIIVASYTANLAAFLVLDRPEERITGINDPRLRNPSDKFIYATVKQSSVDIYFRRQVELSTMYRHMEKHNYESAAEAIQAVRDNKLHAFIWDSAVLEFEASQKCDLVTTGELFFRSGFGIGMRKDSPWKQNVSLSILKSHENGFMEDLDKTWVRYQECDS
MMP-9 (h), sequence (P14780 94-707): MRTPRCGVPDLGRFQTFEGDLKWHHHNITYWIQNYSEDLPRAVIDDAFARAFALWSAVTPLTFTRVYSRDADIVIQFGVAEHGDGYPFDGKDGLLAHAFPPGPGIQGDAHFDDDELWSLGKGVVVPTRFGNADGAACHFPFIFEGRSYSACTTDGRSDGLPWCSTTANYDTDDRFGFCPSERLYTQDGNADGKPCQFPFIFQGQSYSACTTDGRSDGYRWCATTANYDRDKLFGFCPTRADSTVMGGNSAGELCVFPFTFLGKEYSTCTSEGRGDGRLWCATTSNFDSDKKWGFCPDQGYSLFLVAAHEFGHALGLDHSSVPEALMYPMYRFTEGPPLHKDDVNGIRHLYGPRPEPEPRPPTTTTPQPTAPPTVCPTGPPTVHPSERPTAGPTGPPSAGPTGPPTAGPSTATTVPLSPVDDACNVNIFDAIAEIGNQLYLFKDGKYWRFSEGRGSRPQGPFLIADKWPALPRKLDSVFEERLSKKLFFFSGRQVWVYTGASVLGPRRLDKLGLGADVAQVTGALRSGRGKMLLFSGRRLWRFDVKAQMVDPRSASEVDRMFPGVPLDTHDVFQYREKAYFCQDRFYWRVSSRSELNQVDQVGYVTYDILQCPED

As to `O=C(O[C@H](CO)C(F)(F)F)N1CC2(CC(CC3=C4C=CC=[N+]4[B-](F)(F)n4cccc43)C2)C1` [Compound 1], the inhibition at 10 µM was 4.3% at ZAP70 kinase (h), -13.2% on 5-HT2A (h) and -6.7% in test [1].

With `O=C(N1CC2(CC(CC3=C4C=CC=[N+]4[B-](F)(F)n4cccc43)C2)C1)N1CC2(CC(n3cnc(C4CC4)n3)C2)C1` [Compound 5], the inhibition at 10 µM at ZAP70 kinase (h) is 6.9%; on 5-HT2A (h), -9.2%; in test [1], -20.3%; on MMP-9 (h), 16.8%. Also, the residence time at MAGL is 44 min.

`O=C1CO[C@H]2CCN(C(=O)N3CC4(CC(CC5=C6C=CC=[N+]6[B-](F)(F)n6cccc65)C4)C3)C[C@H]2N1` [Compound 4] registered a residence time at MAGL of 37 min.

Take `O=C1CO[C@H]2CCN(C(=O)N3CC4(CC(CC5=C6C=CC(c7ccc[nH]7)=[N+]6[B-](F)(F)n6cccc65)C4)C3)C[C@H]2N1` [Compound 4a]: the inhibition at 10 µM at ZAP70 kinase (h) was 5.4%; at 5-HT2A (h), 18.5%; in test [1] it was 3.1%; at MMP-9 (h) it was 47%.

Regarding `O=C(OC(C(F)(F)F)C(F)(F)F)N1CC2(CC(CC3=C4C=CC(c5ccc[nH]5)=[N+]4[B-](F)(F)n4cccc43)C2)C1` [Compound 2a], the inhibition at 10 µM at ZAP70 kinase (h) is 2.3%; on 5-HT2A (h) it was -6.8%; in test [1], -2%; at MMP-9 (h) it was 9.7%.

On to `O=C(OC(C(F)(F)F)C(F)(F)F)N1CC2(CC(CC3=C4C=CC=[N+]4[B-](F)(F)n4cccc43)C2)C1` [Compound 2], for which the inhibition at 10 µM on ZAP70 kinase (h) is -2%; on 5-HT2A (h) it was -36.2%; in test [1] it was 6.5%; on MMP-9 (h), 4.5%.
